Assay: xn = mol fraction of the nth substance listed
Details: 100 kPa, Liquid; for speed of sound: Frequency=3 MHz, Sing-around technique in a fixed-path interferometer; for mass density: Vibrating tube method

CCCCOCC(C)O (stereo not given) [1-butoxy-2-propanol] + CC(C)O
Details | mass density, 293.15 K [kg/m3] | mass density, 298.15 K [kg/m3] | mass density, 303.15 K [kg/m3] | mass density, 308.15 K [kg/m3] | mass density, 313.15 K [kg/m3] | speed of sound, 293.15 K [m/s] | speed of sound, 298.15 K [m/s] | speed of sound, 303.15 K [m/s] | speed of sound, 308.15 K [m/s] | speed of sound, 313.15 K [m/s]
x1 = 0.0518 | 795.249 | 791.104 | 787.006 | 782.711 | 778.081 | 1178.7 | 1159 | 1141.8 | 1124.3 | 1103.5
x1 = 0.1029 | 803.695 | 799.527 | 795.386 | 791.07 | 786.435 | 1188.9 | 1168.9 | 1150.7 | 1133.2 | 1111.5
x1 = 0.1532 | 811.327 | 807.143 | 802.969 | 798.631 | 793.996 | 1197.5 | 1178.3 | 1159.2 | 1141.6 | 1121.5
x1 = 0.2019 | 818.045 | 813.834 | 809.64 | 805.279 | 800.656 | 1205.8 | 1186.1 | 1166.8 | 1149.2 | 1129.9
x1 = 0.2529 | 824.525 | 820.286 | 816.061 | 811.703 | 807.104 | 1213.9 | 1194.4 | 1174.2 | 1156.5 | 1138.4
x1 = 0.3032 | 830.352 | 826.103 | 821.857 | 817.482 | 812.872 | 1221.8 | 1201.3 | 1181 | 1163.2 | 1146.6
x1 = 0.4059 | 840.824 | 836.541 | 832.254 | 827.85 | 823.26 | 1234.6 | 1214 | 1193.5 | 1175.7 | 1159.4
x1 = 0.5048 | 849.502 | 845.196 | 840.881 | 836.456 | 831.887 | 1244.9 | 1225.3 | 1204.4 | 1186.7 | 1170.3
x1 = 0.604 | 857.039 | 852.718 | 848.373 | 843.934 | 839.389 | 1253.3 | 1234.6 | 1214.4 | 1196.6 | 1179.7
x1 = 0.7012 | 863.524 | 859.19 | 854.833 | 850.391 | 845.859 | 1261.2 | 1243 | 1222.6 | 1204.8 | 1187.9
x1 = 0.8028 | 869.466 | 865.108 | 860.733 | 856.287 | 851.775 | 1267.7 | 1250.2 | 1230.5 | 1212.8 | 1195.7
x1 = 0.8545 | 872.203 | 867.842 | 863.464 | 859.022 | 854.514 | 1270.6 | 1254.6 | 1234 | 1216.2 | 1199.3
x1 = 0.9056 | 874.745 | 870.379 | 865.982 | 861.537 | 857.049 | 1273.4 | 1257.5 | 1237.5 | 1219.7 | 1202.1
x1 = 0.954 | 876.996 | 872.629 | 868.284 | 863.829 | 859.355 | 1275.9 | 1259.8 | 1240.6 | 1222.9 | 1204.7
x1 = 1 | 879.031 | 874.632 | 870.204 | 865.737 | 861.241 | 1279 | 1260.9 | 1242.9 | 1224.9 | 1207

CCCCOCC(C)O (stereo not given) [1-butoxy-2-propanol] + CCC(C)O
Details | mass density, 293.15 K [kg/m3] | mass density, 298.15 K [kg/m3] | mass density, 303.15 K [kg/m3] | mass density, 308.15 K [kg/m3] | mass density, 313.15 K [kg/m3] | speed of sound, 293.15 K [m/s] | speed of sound, 298.15 K [m/s] | speed of sound, 303.15 K [m/s] | speed of sound, 308.15 K [m/s] | speed of sound, 313.15 K [m/s]
x1 = 0.0517 | 812.712 | 808.614 | 804.434 | 800.162 | 795.809 | 1234.4 | 1217.3 | 1201.4 | 1181.6 | 1163.6
x1 = 0.1014 | 818.284 | 814.152 | 809.949 | 805.653 | 801.286 | 1238.8 | 1221.5 | 1205.7 | 1186 | 1168
x1 = 0.1527 | 823.685 | 819.533 | 815.316 | 811.017 | 806.644 | 1243 | 1225.9 | 1209.6 | 1190 | 1172
x1 = 0.2041 | 828.704 | 824.532 | 820.316 | 816 | 811.61 | 1246.9 | 1229.4 | 1213.3 | 1194 | 1176
x1 = 0.2815 | 835.699 | 831.499 | 827.23 | 822.897 | 818.493 | 1252.2 | 1234 | 1218.3 | 1199.1 | 1181.2
x1 = 0.3581 | 841.995 | 837.767 | 833.49 | 829.144 | 824.735 | 1256.8 | 1238.2 | 1222.6 | 1203.6 | 1185.7
x1 = 0.4421 | 848.377 | 844.12 | 839.804 | 835.438 | 831.018 | 1261.1 | 1242.5 | 1226.7 | 1207.9 | 1190
x1 = 0.5348 | 854.7 | 850.417 | 846.095 | 841.719 | 837.299 | 1265.3 | 1246.8 | 1230.6 | 1212 | 1194.1
x1 = 0.627 | 860.446 | 856.141 | 851.795 | 847.417 | 842.98 | 1268.8 | 1250.7 | 1233.8 | 1215.3 | 1197.5
x1 = 0.7213 | 865.799 | 861.469 | 857.116 | 852.712 | 848.267 | 1271.6 | 1254 | 1236.5 | 1218.2 | 1200.3
x1 = 0.8116 | 870.476 | 866.131 | 861.747 | 857.328 | 852.892 | 1274 | 1256.4 | 1238.8 | 1220.6 | 1202.8
x1 = 0.8581 | 872.724 | 868.372 | 863.985 | 859.577 | 855.127 | 1275.3 | 1257.5 | 1239.8 | 1221.9 | 1204.1
x1 = 0.9062 | 874.964 | 870.61 | 866.21 | 861.774 | 857.32 | 1276.4 | 1258.6 | 1240.8 | 1222.8 | 1205
x1 = 0.9536 | 877.051 | 872.689 | 868.316 | 863.853 | 859.383 | 1277.7 | 1259.7 | 1242 | 1223.9 | 1206.1
x1 = 1 | 879.031 | 874.632 | 870.204 | 865.737 | 861.241 | 1279 | 1260.9 | 1242.9 | 1224.9 | 1207

CCCCOCC(C)O (stereo not given) [1-butoxy-2-propanol] + CCCCO
Details | mass density, 293.15 K [kg/m3] | mass density, 298.15 K [kg/m3] | mass density, 303.15 K [kg/m3] | mass density, 308.15 K [kg/m3] | mass density, 313.15 K [kg/m3] | speed of sound, 293.15 K [m/s] | speed of sound, 298.15 K [m/s] | speed of sound, 303.15 K [m/s] | speed of sound, 308.15 K [m/s] | speed of sound, 313.15 K [m/s]
x1 = 0.0519 | 815.814 | 811.979 | 808.09 | 804.168 | 800.279 | 1259.9 | 1243.7 | 1227.1 | 1210.6 | 1193
x1 = 0.0992 | 821.015 | 817.166 | 813.235 | 809.277 | 805.328 | 1262.1 | 1246.1 | 1229.4 | 1212.9 | 1194.8
x1 = 0.1522 | 826.515 | 822.607 | 818.628 | 814.607 | 810.63 | 1264.4 | 1248.7 | 1232 | 1215.4 | 1196.7
x1 = 0.2025 | 831.372 | 827.404 | 823.395 | 819.351 | 815.31 | 1266.4 | 1250.8 | 1234.1 | 1217.4 | 1198.4
x1 = 0.2533 | 835.963 | 831.953 | 827.91 | 823.833 | 819.767 | 1268.2 | 1252.7 | 1235.8 | 1219 | 1199.9
x1 = 0.3031 | 840.187 | 836.14 | 832.063 | 827.949 | 823.842 | 1269.8 | 1254.1 | 1237.2 | 1220.3 | 1201.2
x1 = 0.4039 | 847.844 | 843.734 | 839.592 | 835.411 | 831.226 | 1272.5 | 1256.4 | 1239.4 | 1222.4 | 1203.2
x1 = 0.4992 | 854.333 | 850.165 | 845.969 | 841.732 | 837.498 | 1274.5 | 1258.4 | 1241.2 | 1224 | 1204.8
x1 = 0.6055 | 860.746 | 856.533 | 852.278 | 847.986 | 843.678 | 1276.3 | 1260.1 | 1242.8 | 1225.4 | 1206.2
x1 = 0.7017 | 865.941 | 861.685 | 857.378 | 853.038 | 848.688 | 1277.4 | 1260.8 | 1243.5 | 1226.1 | 1207
x1 = 0.8058 | 871.007 | 866.701 | 862.345 | 857.961 | 853.562 | 1278.3 | 1261.3 | 1243.9 | 1226.4 | 1207.5
x1 = 0.852 | 873.053 | 868.741 | 864.367 | 859.962 | 855.538 | 1278.6 | 1261.3 | 1243.9 | 1226.3 | 1207.5
x1 = 0.8982 | 875.005 | 870.664 | 866.282 | 861.844 | 857.451 | 1278.8 | 1261.3 | 1243.9 | 1226.3 | 1207.5
x1 = 0.9565 | 877.407 | 873.039 | 868.667 | 864.216 | 859.743 | 1279 | 1261.5 | 1243.9 | 1226.3 | 1207.5
x1 = 1 | 879.031 | 874.632 | 870.204 | 865.737 | 861.241 | 1279 | 1260.9 | 1242.9 | 1224.9 | 1207

Reference: the NIST ThermoML archive (doi:10.1016/j.jct.2014.07.019)
